This passage reports EC50 and IC50 results from ChEMBL document CHEMBL6134892, “Discovery and Evaluation of DA-302168S as an Efficacious Oral Small-Molecule Glucagon-Like Peptide-1 Receptor Agonist” (J Med Chem, 2025).

Experiment [1] has as its target T1, Glucagon-like peptide 1 receptor (Mus musculus, UniProt O35659).
T1 sequence (O35659 whole entry): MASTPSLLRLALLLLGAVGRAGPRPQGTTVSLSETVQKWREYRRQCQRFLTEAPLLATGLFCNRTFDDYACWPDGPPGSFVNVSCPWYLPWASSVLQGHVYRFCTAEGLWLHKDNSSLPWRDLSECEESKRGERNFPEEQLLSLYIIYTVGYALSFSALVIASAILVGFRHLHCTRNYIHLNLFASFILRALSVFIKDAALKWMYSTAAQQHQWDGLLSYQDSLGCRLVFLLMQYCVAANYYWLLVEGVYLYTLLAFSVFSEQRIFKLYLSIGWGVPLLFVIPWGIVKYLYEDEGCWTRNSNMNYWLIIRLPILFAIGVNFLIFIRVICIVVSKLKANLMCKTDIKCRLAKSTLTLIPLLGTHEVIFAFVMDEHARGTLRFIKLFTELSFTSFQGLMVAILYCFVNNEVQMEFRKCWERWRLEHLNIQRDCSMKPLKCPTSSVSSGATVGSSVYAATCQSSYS
Kind of experiment: Agonist activity at mouse GLP-1R expressed in HEK293 cells by cAMP accumulation assay. The format is functional, cell-based.

In experiment [2] the target is T2, Glucagon-like peptide 1 receptor (Rattus norvegicus, UniProt P32301).
T2 sequence (P32301 whole entry): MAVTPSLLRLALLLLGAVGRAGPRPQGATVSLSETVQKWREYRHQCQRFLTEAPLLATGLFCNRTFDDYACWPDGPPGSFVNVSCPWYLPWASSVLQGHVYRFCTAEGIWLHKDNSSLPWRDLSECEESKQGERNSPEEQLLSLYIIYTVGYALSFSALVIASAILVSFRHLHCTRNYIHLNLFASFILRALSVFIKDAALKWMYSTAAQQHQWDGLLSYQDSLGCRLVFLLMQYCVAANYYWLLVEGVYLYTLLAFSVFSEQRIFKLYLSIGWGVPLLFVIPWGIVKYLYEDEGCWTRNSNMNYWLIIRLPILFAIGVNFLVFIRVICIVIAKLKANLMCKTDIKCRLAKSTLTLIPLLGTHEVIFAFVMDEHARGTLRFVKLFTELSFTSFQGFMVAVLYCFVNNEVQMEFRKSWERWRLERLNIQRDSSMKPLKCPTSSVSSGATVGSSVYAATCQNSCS
The experiment in a line: Agonist activity at rat GLP-1R expressed in HEK293 cells by cAMP accumulation assay. The format is functional, cell-based.

For another experiment, the target named is T3, Cytochrome P450 1A2 (Homo sapiens, UniProt P05177).
T3 sequence (P05177 whole entry): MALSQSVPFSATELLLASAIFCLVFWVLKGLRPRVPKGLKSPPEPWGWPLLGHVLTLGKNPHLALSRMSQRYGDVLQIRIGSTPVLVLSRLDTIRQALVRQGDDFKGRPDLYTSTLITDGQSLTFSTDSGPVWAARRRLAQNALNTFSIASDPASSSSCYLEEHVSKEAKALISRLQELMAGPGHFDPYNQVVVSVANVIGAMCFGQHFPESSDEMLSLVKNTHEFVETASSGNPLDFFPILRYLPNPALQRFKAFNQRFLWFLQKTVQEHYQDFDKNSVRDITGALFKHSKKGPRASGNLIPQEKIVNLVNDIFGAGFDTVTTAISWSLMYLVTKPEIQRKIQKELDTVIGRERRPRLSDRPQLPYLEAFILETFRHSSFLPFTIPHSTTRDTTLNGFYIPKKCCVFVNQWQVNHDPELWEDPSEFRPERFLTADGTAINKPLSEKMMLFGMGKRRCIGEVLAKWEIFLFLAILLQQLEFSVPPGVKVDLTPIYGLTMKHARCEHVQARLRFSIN
Kind of experiment: Inhibition of CYP1A2 in human liver microsomes incubated for 10 mins in presence of NADPH by LC-MS/MS analysis. The format is ADME, Microsome. (Liver microsomes are vesicles of endoplasmic reticulum, rich in cytochrome P450 enzymes.)

Experiment [3] can be described thus: Agonist activity at dog GLP-1R expressed in HEK293 cells by cAMP accumulation assay. Conditions: Canis lupus familiaris. (cAMP levels reflect the balance of adenylyl cyclase and phosphodiesterase activity.)
In experiment [4] the target is Glucagon-like peptide 1 receptor (Homo sapiens, UniProt P43220). The experiment in a line: Agonist activity at human GLP-1R expressed in HEK293 cells by cAMP accumulation assay. In kind it is functional, cell-based.
Glucagon-like peptide 1 receptor (Homo sapiens, UniProt P43220), sequence (P43220 whole entry): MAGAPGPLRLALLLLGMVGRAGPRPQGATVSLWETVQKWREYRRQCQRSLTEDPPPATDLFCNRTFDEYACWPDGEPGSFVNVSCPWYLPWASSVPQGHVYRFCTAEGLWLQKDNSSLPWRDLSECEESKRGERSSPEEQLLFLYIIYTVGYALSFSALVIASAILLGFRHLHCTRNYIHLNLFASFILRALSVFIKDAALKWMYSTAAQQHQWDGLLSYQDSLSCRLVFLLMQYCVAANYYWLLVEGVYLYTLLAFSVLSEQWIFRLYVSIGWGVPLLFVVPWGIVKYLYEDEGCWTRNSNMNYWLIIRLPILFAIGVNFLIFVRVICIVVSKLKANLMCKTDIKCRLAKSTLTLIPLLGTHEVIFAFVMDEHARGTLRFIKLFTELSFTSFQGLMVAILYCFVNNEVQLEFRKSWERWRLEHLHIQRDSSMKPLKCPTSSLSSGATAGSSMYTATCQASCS

Turning to `O=C(O)c1ccc2nc(Cc3ccc(-c4ccc(F)c(OCc5ccc(Cl)c6ccoc56)n4)cc3F)n(C[C@@H]3CCO3)c2c1`, the concentration for a half-maximal effect (EC50) (as a rule, the concentration needed to bring the measured effect to its halfway point) is greater than 30 µM in experiment [1], greater than 30 µM in experiment [2], greater than 30 µM in experiment [3] and 0.029 nM in experiment [4]. The IC50 (in general, the concentration needed to halve the response being measured) on Cytochrome P450 1A2 is greater than 30 µM.
